Reference: patent publication US11186580B2, “Crystalline forms of a phosphoinositide 3-kinase (PI3K) inhibitor” (Incyte Corporation, priority 2018, dated 2021)
Read-outs that look alike come from different tables or passages of the source.

Tests used:
[1] = molecular target: PI3Kγ (p110γ) Recombinant Human Protein (Homo sapiens (Human), UniProt P48736); experiment: PI3K-γ Scintillation Proximity Assay; type: biochemical; conditions: 2 μM ATP, 20 μM PIP2, 13 nM PI3Kγ
From the text: PI3K-γ Scintillation Proximity Assay
(§1) [γ-^33]ATP (10 mCi/mL) and Wheat Germ Agglutinin (WGA) YSi SPA Scintillation Beads was purchased from Perkin-Elmer (Waltham, Mass.). Lipid kinase substrate, D-myo-Phosphatidylinositol 4,5-bisphosphate (PtdIns(4,5)P2)D (+)-sn-1,2-di-O-octanoylglyceryl, 3-O-phospho linked (PIP2), CAS 204858-53-7, was purchased from Echelon Biosciences (Salt Lake City, Utah). PI3Kγ (p110γ) Recombinant Human Protein was purchased from Life technology (Grand Island, N.Y.). ATP, MgCl2, DTT, EDTA, MOPS and CHAPS were purchased from SigmaAldrich (St. Louis, Mo.).
The kinase reaction was conducted in polystyrene 384-well Greiner Bio-one white plate from Thermo Fisher Scientific in a final volume of 25 μL. Inhibitors were first diluted serially in DMSO and added to the plate wells before the addition of other reaction components. The final concentration of DMSO in the assay was 2%. The PI3Kγ assay was carried out at room temperature in 20 mM MOPS, pH 6.7, 10 mM MgCl2, 5 mM DTT and CHAPS 0.03%. Reactions were initiated by the addition of ATP, the final reaction mixture consisted of 20 μM PIP2, 2 μM ATP, 0.5 μCi [γ-^33P] ATP, 13 nM PI3Kγ. […] After the plate sealing, plates were shaken overnight at room temperature and centrifuged at 1500 rpm for 10 min, the radioactivity of the product was determined by scintillation counting on Topcount (Perkin-Elmer). […]

[2] = molecular target: PI3Kδ (p110δ/p85α) Recombinant Human Protein (Homo sapiens (Human), UniProt O00329); experiment: PI3Kδ Scintillation Proximity Assay; type: biochemical; conditions: 2 μM ATP, 20 μM PIP2, 3.4 nM PI3Kδ
From the text: PI3Kδ Scintillation Proximity Assay
as §1, with “[γ-^33P]ATP” for “[γ-^33]ATP”, “PI3Kδ (p110δ/p85α)” for “PI3Kγ (p110γ)”, “Eurofins (St Charles, Mo.).” for “Life technology (Grand Island, N.Y.).”
The kinase reaction was conducted in polystyrene 384-well Greiner Bio-one white plate from Thermo Fisher Scientific in a final volume of 25 μL. Inhibitors were first diluted serially in DMSO and added to the plate wells before the addition of other reaction components. The final concentration of DMSO in the assay was 2%. The PI3Kδ assay was carried out at room temperature in 20 mM MOPS, pH 6.7, 10 mM MgCl2, 5 mM DTT and CHAPS 0.03%. Reactions were initiated by the addition of ATP, the final reaction mixture consisted of 20 μM PIP2, 2 μM ATP, 0.5 μCi [γ-^33P] ATP, 3.4 nM PI3Kδ. Reactions were incubated for 120 min and terminated by the addition of 40 μL SPA beads suspended in quench buffer: 163 mM potassium phosphate pH 7.8, 20% glycerol, 25 mM EDTA. The final concentration of SPA beads is 1.0 mg/mL. After the plate sealing, plates were shaken overnight at room temperature and centrifuged at 1500 rpm for 10 min, the radioactivity of the product was determined by scintillation counting on Topcount (PerkinElmer). IC50 determination was performed by fitting the curve of percent of the solvent control activity versus the log of the inhibitor concentration using the GraphPad Prism 6.0 software.

[3] = tested on: Phosphorylated Ribosomal Protein S6 (RPS6) in THP-1 cells (PI3Kγ); experiment: THP-1 RPS6 ELISA Assay; type: cell-based, Human; conditions: 10 nM MCP-1 for 15 minutes, Phospho-RPS6 ELISA, read-out: PI3Kγ_THP1_RPS6_ELISA IC50
Protocol: To measure the Phosphorylated Ribosomal Protein S6 (RPS6) in cell lysates, THP-1 cells (Human Acute Monocytic Leukemia) are purchased from ATCC (Manassas, Va.) and maintained in RPMI with 10% FBS (Gibco/Life Technologies, Carlsbad, Calif.). For the assay, THP-1 cells are serum starved overnight in RPMI, then plated in RPMI (2×10^5 cells/well in 90 μL) into 96-well flat-bottom tissue culture treated plates (Corning, Corning, N.Y.), in the presence or absence of a concentration range of test compounds. Covered plates are incubated for 2 hours at 37° C., 5% CO2 then treated with or without 10 nM MCP-1(MYBioSource, San Diego, Calif.) for 15 minutes at 37° C., 5% CO2. Plates are centrifuged at 1600 RPM and supernatants are removed. Cells are lysed in Lysis Buffer (Cell Signaling, Danvers, Mass.) with Protease Inhibitor (Calbiochem/EMD, Germany), PMSF (Sigma, St Louis Mo.), HALTS (Thermo Fisher, Rockford, Ill.) for 30 min on wet ice. Cell lysates are frozen at −80° C. before testing. The lysates are tested in the Human/Mouse/Rat Phospho-RPS6 ELISA (R&D Systems, Inc. Minn, Minn.). The plate is measured using a microplate reader (SpectraMax M5—Molecular Devices, LLC Sunnyvale, Calif.) set to 450 nm with a wavelength correction of 540. IC50 determination is performed by fitting the curve of inhibitor percent inhibition versus the log of the inhibitor concentration using the GraphPad Prism 5.0 software.

Chain of PI3Kδ (p110δ/p85α) Recombinant Human Protein (O00329 whole entry): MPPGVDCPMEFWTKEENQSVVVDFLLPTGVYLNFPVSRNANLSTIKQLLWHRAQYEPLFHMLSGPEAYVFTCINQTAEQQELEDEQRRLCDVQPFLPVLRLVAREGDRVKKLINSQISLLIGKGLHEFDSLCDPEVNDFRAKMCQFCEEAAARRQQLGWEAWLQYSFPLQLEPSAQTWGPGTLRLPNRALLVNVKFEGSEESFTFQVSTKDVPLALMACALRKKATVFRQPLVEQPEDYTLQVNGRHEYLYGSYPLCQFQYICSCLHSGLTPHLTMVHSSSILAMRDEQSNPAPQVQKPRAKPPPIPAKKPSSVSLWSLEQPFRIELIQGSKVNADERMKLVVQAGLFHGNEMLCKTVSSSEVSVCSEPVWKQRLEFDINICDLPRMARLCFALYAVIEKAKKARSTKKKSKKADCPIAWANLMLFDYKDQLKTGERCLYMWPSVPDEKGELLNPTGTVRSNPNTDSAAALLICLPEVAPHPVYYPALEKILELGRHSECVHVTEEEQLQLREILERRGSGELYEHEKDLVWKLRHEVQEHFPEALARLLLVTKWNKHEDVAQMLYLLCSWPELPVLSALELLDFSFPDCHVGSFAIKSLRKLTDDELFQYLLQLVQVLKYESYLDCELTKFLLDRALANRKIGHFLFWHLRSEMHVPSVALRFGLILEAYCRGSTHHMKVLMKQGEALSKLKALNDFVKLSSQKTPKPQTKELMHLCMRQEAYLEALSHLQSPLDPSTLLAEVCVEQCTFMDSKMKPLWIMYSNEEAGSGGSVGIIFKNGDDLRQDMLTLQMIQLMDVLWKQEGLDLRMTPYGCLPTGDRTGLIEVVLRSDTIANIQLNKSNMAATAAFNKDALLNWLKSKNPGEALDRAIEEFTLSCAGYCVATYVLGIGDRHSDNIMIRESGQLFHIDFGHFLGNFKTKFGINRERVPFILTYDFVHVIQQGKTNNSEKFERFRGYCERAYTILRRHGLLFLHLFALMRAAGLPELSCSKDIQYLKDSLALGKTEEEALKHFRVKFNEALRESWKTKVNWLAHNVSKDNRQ
Chain of PI3Kδ (p110δ/p85α) Recombinant Human Protein (P27986 whole entry partner): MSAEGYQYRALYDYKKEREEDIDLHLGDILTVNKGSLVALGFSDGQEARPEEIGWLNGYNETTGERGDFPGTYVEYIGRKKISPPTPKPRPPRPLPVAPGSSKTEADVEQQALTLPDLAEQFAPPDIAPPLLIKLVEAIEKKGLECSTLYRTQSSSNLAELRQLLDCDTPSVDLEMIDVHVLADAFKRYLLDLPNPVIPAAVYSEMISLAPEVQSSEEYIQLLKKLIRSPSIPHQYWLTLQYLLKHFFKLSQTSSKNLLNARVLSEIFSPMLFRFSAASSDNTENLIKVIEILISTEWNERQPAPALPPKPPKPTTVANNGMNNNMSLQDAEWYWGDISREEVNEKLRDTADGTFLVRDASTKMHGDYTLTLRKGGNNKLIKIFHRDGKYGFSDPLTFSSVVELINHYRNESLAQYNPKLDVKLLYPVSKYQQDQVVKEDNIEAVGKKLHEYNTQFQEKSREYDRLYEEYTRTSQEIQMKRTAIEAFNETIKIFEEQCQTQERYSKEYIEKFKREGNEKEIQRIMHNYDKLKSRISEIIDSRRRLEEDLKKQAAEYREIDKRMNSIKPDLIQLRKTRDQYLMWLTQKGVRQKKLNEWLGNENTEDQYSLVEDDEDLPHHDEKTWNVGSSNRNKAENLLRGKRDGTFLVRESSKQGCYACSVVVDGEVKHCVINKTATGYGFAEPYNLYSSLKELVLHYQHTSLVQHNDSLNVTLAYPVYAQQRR
Chain of PI3Kγ (p110γ) Recombinant Human Protein (P48736 whole entry): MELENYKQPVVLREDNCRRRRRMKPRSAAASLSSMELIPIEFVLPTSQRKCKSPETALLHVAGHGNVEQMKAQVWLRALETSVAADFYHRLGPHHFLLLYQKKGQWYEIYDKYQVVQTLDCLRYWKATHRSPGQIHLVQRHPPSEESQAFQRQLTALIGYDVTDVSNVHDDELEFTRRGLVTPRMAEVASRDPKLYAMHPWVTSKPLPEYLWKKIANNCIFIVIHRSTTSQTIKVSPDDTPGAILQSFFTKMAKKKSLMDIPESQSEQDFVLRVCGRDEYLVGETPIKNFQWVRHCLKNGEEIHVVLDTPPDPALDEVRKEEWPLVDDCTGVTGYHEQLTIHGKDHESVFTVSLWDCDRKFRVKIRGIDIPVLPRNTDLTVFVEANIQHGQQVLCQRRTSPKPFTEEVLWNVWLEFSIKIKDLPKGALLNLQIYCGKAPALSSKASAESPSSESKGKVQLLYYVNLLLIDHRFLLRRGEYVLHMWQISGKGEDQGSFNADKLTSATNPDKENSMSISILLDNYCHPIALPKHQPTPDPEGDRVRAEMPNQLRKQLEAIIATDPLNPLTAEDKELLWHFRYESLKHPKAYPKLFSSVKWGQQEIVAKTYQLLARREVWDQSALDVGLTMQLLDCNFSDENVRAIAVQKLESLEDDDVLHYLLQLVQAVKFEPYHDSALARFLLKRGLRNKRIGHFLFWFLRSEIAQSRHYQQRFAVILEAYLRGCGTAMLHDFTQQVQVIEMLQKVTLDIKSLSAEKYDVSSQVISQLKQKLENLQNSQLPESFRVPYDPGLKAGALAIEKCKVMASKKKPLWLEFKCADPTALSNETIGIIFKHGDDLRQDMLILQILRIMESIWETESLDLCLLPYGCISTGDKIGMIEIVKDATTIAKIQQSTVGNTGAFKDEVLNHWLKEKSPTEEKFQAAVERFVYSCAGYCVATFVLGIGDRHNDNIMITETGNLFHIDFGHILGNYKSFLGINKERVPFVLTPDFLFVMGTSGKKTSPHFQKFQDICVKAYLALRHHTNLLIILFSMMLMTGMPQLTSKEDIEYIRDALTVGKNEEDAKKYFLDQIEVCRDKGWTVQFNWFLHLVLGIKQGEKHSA

Row | SMILES | IC50 [1] [nM] | IC50 [2] [nM] | IC50 ([3]; Homo sapiens, THP-1, 0.25 h) [nM] | IC50 [3] [nM]
1 | Cc1ccc(C(O)(C(N)=O)C(F)(F)F)cc1-c1cnc2c(N)nc(C(F)(F)F)cn12 (single isomer, unassigned) [Example 1, 2-(3-(8-Amino-6-(trifluoromethyl)imidazo[1,2-a]pyrazin-3-yl)-4-methylphenyl)-3,3,3-trifluoro-2-hydroxypropanamide] | < 100 | < 100 |  | 
2 | Cc1ccc(C(C)(O)C(F)(F)F)cc1-c1cnc2c(N)nc(C(=O)NCC(C)(C)O)cn12 (single isomer, unassigned) [Example 5, 8-Amino-N-(2-hydroxy-2-methylpropyl)-3-(2-methyl-5-(1,1,1-trifluoro-2-hydroxypropan-2-yl)phenyl)imidazo[1,2-a]pyrazine-6-carboxamide] |  | < 500 | > 1000 | 
3 | Cc1ccc(C(C)(O)C(F)(F)F)cc1-c1cnc2c(N)nc(C(=O)NCC(C)(C)O)cn12 (single isomer, unassigned) [Example 6, 8-Amino-N-(2-hydroxy-2-methylpropyl)-3-(2-methyl-5-(1,1,1-trifluoro-2-hydroxypropan-2-yl)phenyl)imidazo[1,2-a]pyrazine-6-carboxamide] |  | < 500 |  | < 500
4 | [2H]C([2H])([2H])c1ccc(C(C)(O)C(F)(F)F)cc1-c1cnc2c(N)nc(C(=O)NCC(C)(C)O)cn12 (single isomer, unassigned) [Example 9, 8-Amino-N-(2-hydroxy-2-methylpropyl)-3-(2-(methyl-d3)-5-(1,1,1-trifluoro-2-hydroxypropan-2-yl)phenyl)imidazo[1,2-a]pyrazine-6-carboxamide] |  |  | < 500 | 
